Values of other authors in US20140221490A1, “METHODS OF TREATING PAIN” (Hospira, Inc., priority 2011, published 2014).
Where two headings read alike, the source gives them in different places.

Details: cited from earlier work; for K1:1, stability constant of 1:1 inclusion complex with HPβCD: literature reference; for Prot. bind., drug fraction bound to protein (fP): plasma; for Cmax: read-out: Cmax, maximum drug concentration in plasma, based on the drug's pharmacokinetics and administration of a normal drug dose

Row | Compound | K1:1, stability constant of 1:1 inclusion complex with HPβCD | Prot. bind., drug fraction bound to protein (fP) | Cmax [µM] | Vd, volume of distribution [L/kg] | K1:1, stability constant of 1:1 inclusion complex with HPβCD (listed as telmisartan)
1 | CC(=O)O[C@]1(C(C)=O)CC[C@H]2[C@@H]3C[C@H](C)C4=CC(=O)CC[C@]4(C)[C@H]3CC[C@@]21C [Medroxyprogesterone acetate] | 260^33 M^−1 | 90% | 1.8 | – | –
2 | COC(=O)C1=C(C)NC(C)=C(C(=O)OCCN(C)Cc2ccccc2)C1c1cccc([N+](=O)[O-])c1 (stereo not drawn) [Nicardipine] | – | – | 0.53 | 8.3 | –
3 | Cc1nccn1CC1CCc2c(c3ccccc3n2C)C1=O (stereo not drawn) [Ondansetron] | 180^39 M^−1 | 75% | 0.9 | 1.7 | –
4 | O=C1[C@H](CC[C@H](O)c2ccc(F)cc2)[C@@H](c2ccc(O)cc2)N1c1ccc(F)cc1 [Ezetimibe] | 1,300^23 M^−1 | 90% | 0.012 | 1.5 | –
5 | CC(=O)Oc1ccccc1C(=O)O [Acetylsalicylic acid] | 100^l M^−1 | 80% | 530 | 0.15 | –
6 | O=C(O)Cc1ccccc1Nc1c(Cl)cccc1Cl [Diclofenac Na, diclofenac sodium] | – | 99.5% | 13 | 0.17 | –
7 | CC1(C)S[C@@H]2[C@H](NC(=O)[C@H](N)c3ccc(O)cc3)C(=O)N2[C@H]1C(=O)O [Amoxicillin] | – | 20% | 65 | 0.3 | –
8 | CC(=O)Nc1nnc(S(N)(=O)=O)s1 [Acetazolamide] | – | 95% | 160 | 0.2 | –
9 | CCCc1nc2c(C)cc(-c3nc4ccccc4n3C)cc2n1Cc1ccc(-c2ccccc2C(=O)O)cc1 [Telmisartan] | 40,000^47 M^−1 | 99% | 2.8 | 7 | 40,000 M^−1
10 | Cc1ncc2n1-c1ccc(Cl)cc1C(c1ccccc1F)=NC2 [Midazolam] | – | 97% | – | – | –
11 | CNCCC(Oc1ccc(C(F)(F)F)cc1)c1ccccc1 (stereo not drawn) [Fluoxetine] | – | 95% | 0.18 | 27 | –
12 | O=C(N[C@H](CO)[C@H](O)c1ccc([N+](=O)[O-])cc1)C(Cl)Cl [Chloramphenicol] | – | 80% | 130 | 0.80 | –
13 | CCCCN1CCCCC1C(=O)Nc1c(C)cccc1C (stereo not drawn) [Bupivacaine] | 13^5 M^−1 | 95% | 6.9 | 1.0 | –
14 | CC(C)c1cccc(C(C)C)c1O [Propofol] | – | 99% | – | – | –
15 | CCC1=C(C)CN(C(=O)NCCc2ccc(S(=O)(=O)NC(=O)N[C@H]3CC[C@H](C)CC3)cc2)C1=O [Glimepride] | – | 99.5% | – | – | –
16 | NC(=O)N1c2ccccc2C=Cc2ccccc21 [Carbamazepine] | 630^6 M^−1 | 75% | 34 | 1.4 | –
17 | C=CC1=C(C(=O)O)N2C(=O)[C@@H](NC(=O)/C(=N\OCC(=O)O)c3csc(N)n3)[C@H]2SC1 [Cefixime] | 1,400^9 M^−1 | – | 360 | 1.0 | –
18 | COc1ccc2[nH]c([S+]([O-])Cc3ncc(C)c(OC)c3C)nc2c1 (stereo not drawn) [Omeprazole] | 70^38 M^−1 | 96% | 4.1 | 0.35 | –
19 | CC(=O)OCC1=C(C(=O)O)N2C(=O)[C@@H](NC(=O)Cc3cccs3)[C@H]2SC1 [Cephalothin] | 70^11 M^−1 | 80% | 76 | 0.26 | –
20 | Nc1nc2c(ncn2COCCO)c(=O)[nH]1 [Acyclovir] | 770^2 M^−1 | – | 7.2 | – | –
21 | Clc1ccc(COC(Cn2ccnc2)c2ccc(Cl)cc2Cl)cc1 (stereo not drawn) [Econazole nitrate] | 13^20 M^−1 | (96) % | 5.5 | – | –
22 | Cc1ccc(-c2cc(C(F)(F)F)nn2-c2ccc(S(N)(=O)=O)cc2)cc1 [Celecoxib] | 630^10 M^−1 | 97% | 1.9 | 6.5 | –
23 | C[C@H]1C[C@H]2[C@@H]3CCC4=CC(=O)C=C[C@]4(C)[C@@]3(F)[C@@H](O)C[C@]2(C)[C@@]1(O)C(=O)CO [Cilest (betamethasone), betamethasone] | 3,000^16 M^−1 | 64% | 0.29 | – | –
24 | CN[C@H]1CC[C@@H](c2ccc(Cl)c(Cl)c2)c2ccccc21 [Sertaline] | – | 98% | – | – | –
25 | C[C@]12C=CC(=O)C=C1CC[C@@H]1[C@@H]2[C@@H](O)C[C@@]2(C)[C@H]1CC[C@]2(O)C(=O)CO [Prednisolone] | 2,400^42 M^−1 | 90% | 1.3 | 1.5 | –
26 | CC(C(=O)O)c1ccc(-c2ccccc2)c(F)c1 (stereo not drawn) [Flurbiprofen] | 7,500^26 M^−1 | 99% | 62 | 0.12 | –
27 | O=C(CCCN1CCC(O)(c2ccc(Cl)cc2)CC1)c1ccc(F)cc1 [Haloperidol] | – | 92% | 0.088 | 18 | –
28 | NS(=O)(=O)c1cc(C2(O)NC(=O)c3ccccc32)ccc1Cl (stereo not drawn) [Chlortalidone (chlorthalidone), chlorthalidone] | 115^14 M^−1 | 75% | 19 | 4.0 | –
